The NIST ThermoML archive (doi:10.1016/j.tca.2014.02.019)
Several values for one entry are separate records, joined by “and”; a condition that tells them apart may be missing. Equal entries are not always repeated.

Assays:
[1] = for mass density / viscosity: 101 kPa, Liquid; for mass density: Vibrating tube method; for viscosity: Falling or rolling sphere viscometry
[2] = xn = mol fraction of the nth substance listed; settings: 101 kPa, Liquid, x2 = 0; for viscosity: Falling or rolling sphere viscometry; for mass density: Vibrating tube method

CCOS(=O)(=O)[O-].CC[N+]1(C)CCOCC1 [4-ethyl-4-methylmorpholinium ethyl sulfate]
[1]
Settings | mass density [kg/m3] | viscosity [mPa·s]
298.15 K | 1252.26 | –
303.15 K | 1249.05 | –
308.15 K | 1245.86 | –
313.15 K | 1242.67 | 2426
318.15 K | 1239.51 | 1677
323.15 K | 1236.35 | 1129
328.15 K | 1233.2 | 779.3
333.15 K | 1230.06 | 552.3
338.15 K | 1226.93 | 400.8
343.15 K | 1223.81 | 297.3

O [water]
[1]
Settings | mass density [kg/m3] | viscosity
298.15 K | – | 0.89 mPa·s
303.15 K | – | 0.808 mPa·s
308.15 K | – | 0.74 mPa·s
313.15 K | 992.15 | 0.681 mPa·s
318.15 K | – | 0.63 mPa·s
323.15 K | 987.93 | 0.593 mPa·s
328.15 K | 985.69 | 0.56 mPa·s
333.15 K | 983.17 | 0.528 mPa·s
338.15 K | 980.3 | 0.519 mPa·s and 0.5 mPa·s
343.15 K | 978.1 | 0.51 mPa·s and 0.473 mPa·s

CCOS(=O)(=O)[O-].CC[N+]1(C)CCCCC1 [1-ethyl-1-methylpiperidinium ethyl sulfate]
[1]
Settings | mass density [kg/m3] | viscosity [mPa·s]
298.15 K | 1181.33 | 1821
303.15 K | 1178.23 | 1186
308.15 K | 1175.1 | 795.7
313.15 K | 1171.79 | 549.9
318.15 K | 1168.85 | 391.8
323.15 K | 1165.73 | 285.8
328.15 K | 1162.62 | 212.6
333.15 K | 1159.54 | 162.5
338.15 K | 1156.56 | 126.1
343.15 K | 1153.58 | 99.87

O [water] + CCOS(=O)(=O)[O-].CC[N+]1(C)CCOCC1
[2]
Settings | mass density [kg/m3] | viscosity [mPa·s]
298.15 K | – | 0.89
303.15 K | – | 0.808
308.15 K | – | 0.74
313.15 K | 992.15 | 0.681
318.15 K | – | 0.63
323.15 K | 987.93 | 0.593
328.15 K | 985.69 | 0.56
333.15 K | 983.17 | 0.528
338.15 K | 980.3 | 0.5
343.15 K | 978.1 | 0.473

CCOS(=O)(=O)[O-].CC[N+]1(C)CCCC1 [1-ethyl-1-methylpyrrolidinium ethyl sulfate]
[1]
Settings | mass density [kg/m3] | viscosity [mPa·s]
313.15 K | 1176.31 | 78.32
318.15 K | 1173.63 | 64.72
323.15 K | 1170.95 | 53.51
328.15 K | 1168.27 | 44.82
333.15 K | 1165.59 | 37.95
338.15 K | 1162.91 | 32.87
343.15 K | 1160.23 | 29.23

Settings | Normal melting temperature [°C]
[1], Crystal, visual observation | 36.92

O [water] + CCOS(=O)(=O)[O-].CC[N+]1(C)CCCC1
[2]
Settings | mass density [kg/m3] | viscosity [mPa·s]
313.15 K | 992.15 | 0.681
318.15 K | – | 0.63
323.15 K | 987.93 | 0.593
328.15 K | 985.69 | 0.56
333.15 K | 983.17 | 0.528
338.15 K | 980.3 | 0.519
343.15 K | 978.1 | 0.51

O [water] + CCOS(=O)(=O)[O-].CC[N+]1(C)CCCCC1
[2]
Settings | mass density [kg/m3] | viscosity [mPa·s]
298.15 K | – | 0.89
303.15 K | – | 0.808
308.15 K | – | 0.74
313.15 K | 992.15 | 0.681
318.15 K | – | 0.63
323.15 K | 987.93 | 0.593
328.15 K | 985.69 | 0.56
333.15 K | 983.17 | 0.528
338.15 K | 980.3 | 0.5
343.15 K | 978.1 | 0.473
